Several values for one entry are separate records, joined by “and”; a condition that tells them apart may be missing. Equal entries are not always repeated.
Assays:
monocyte-derived DCs [1] = assay: Quantitative real-time PCR of marker genes in treated DCs
Method: Total RNA was extracted from treated DCs or PBMCs using RNeasy mini kits (Qiagen, Courtaboeuf, France) and cDNAs were obtained using TaqMan reverse transcription reagents (Applied Biosystems, Les Ulis, France) as per the manufacturer's instructions. Messenger RNA expression was evaluated by quantitative PCR on a 7900HT real-time PCR system (Applied Biosystems) with predesigned Taqman gene expression assays and reagents, according to the manufacturer's instructions. Expression of the following genes was assessed in DCs or PBMCs: GILZ (Hs00608272_m1), IDO (Hs00158032_m1), RALDH-1 (Hs00167445_m1), RALDH-2 (Hs00180254_m1), ANXA1 (Hs00167549_m1), CLIC2 (Hs01574555_m)1, FKBP5 (Hs01561001_m1), F13A (Hs00173388_m1), GPX1 (Hs00829989_gH), IMDH2 (Hs00168418_m1), OSF1 (Hs00273458_m1), TPP1 (Hs00166099_m1), C1QA (Hs00381122_m1), C1QB (Hs00608019_m1), C1QC (Hs00757779_m1), CATB (Hs00947433_m1), CATC (Hs00175188_m1), STAB1 (Hs01109068_m1), MRC1 (Hs00267207_m1), CD71 (Hs00951083_m1), FSCN1 (Hs00979631_g1), IRF4 (Hs01056533_m1), MX1 (Hs00895608_m1), NMES1 (Hs00260902_m1), TRAF1 (Hs01090170_m1). Expression of the following genes was assessed in T cells: IFNg (Hs00989291_m1), IL-4 (Hs00174122_m1), IL-10 (Hs00961622_m1) and IL-17A (Hs00174383_m1). Data were interpreted for each target gene in comparison with endogenous β-actin (Hs99999903_m1) or GAPDH (Hs03929097_g1) as controls. The relative amount of target genes in each sample was calculated in comparison with the calibrator sample using the ΔΔCt The magnitude of gene induction was calculated using the formula 2^−ΔΔCt=2^(−ΔCt for stimulated cells−ΔCt for unstimulated cells).

monocyte-derived DCs [2] = assay: Western blot analysis of marker proteins in treated DCs; format: cell-based, human
Method: NuPAGE-Western blotting was carried out according to standard procedures (NuPAGE technical guide, Invitrogen). […] H00004599-[…], 1/500) from Abnova (Taipei, Taiwan), anti-CD71 (Cat. no. […] The rabbit polyclonal serum raised against GILZ was previously described (see […], et al. […] Peroxidase-conjugated goat anti-mouse and anti-rabbit secondary antibodies were both obtained from Jackson Immunoresearch Laboratories (Sufflok, England), and the chemiluminescence detection kit was from Pierce (SuperSignal West Pico Chemiluminescent Substrate, Fisher Scientific, Illkirch, France). Western blot signals were acquired with a CCD camera (Fusion FX7, Vilber-Lourmat, Marnes La Vallée, France) and band volume was quantified using the Bio-1D software (Vilber-Lourmat). β-actin or GAPDH were used as loading controls.

monocyte-derived DCs [3] = assay: Label free MS analysis of DC subtypes; format: cell-based, human
Method: Label-free MS of digested total protein lysates (solubilized in buffer A as described above), was conducted to compare proteomes of control, effector and regulatory DC subsets. Briefly, a common ultrafiltration device was used for detergent removal (CHAPS) to enable subsequent proteome analysis (Filter-aided sample preparation, FASP). 100 μg of proteins were mixed with urea-containing buffers in the filter unit (Amicon Ultra-0.5 ml, Ultracel-10 kDa Membrane, Millipore, Molsheim, France), reduced with 20 mM DTT, alkylated with 50 mM iodoacetamide, digested with Lys-C (37° C., 5 h, ratio 1/50, Sigma-Aldrich) and then with trypsin (37° C., overnight, ratio 1/50). After digestion, peptides were desalted using RPC18 Dynal magnetic beads (Invitrogen), acidified with FA and 1.5 to 2 μg of tryptic peptides were analyzed by nanoLC-MS or nanoLC-MS/MS.
In MS mode, full scan MS spectra were acquired from m/z 280 to 1500 (1 MS spectrum of 0.8 s) during 270 min. Ion intensities recorded in LC-MS data were analyzed using Progenesis LC-MS v3.1 software (Non Linear Dynamics) to provide reliable measurements of peptide (feature) abundance across samples. Internal calibration was performed by enabling the lock mass option in MS mode (minimum intensity>200 and mass±0.015 Da). […] Targeted nanoLC-MS/MS were accomplished by means of an inclusion mass list in the MS instrument method. […] Identification parameters were identical to those described for 2D-DIGE analysis. […] For accurate mass measurements, the lock mass option was enabled in MS and MS/MS mode.

monocyte-derived DCs [4] = assay: Cell surface phenotype of treated DCs by flow cytometry; format: cell-based, human; settings: treatment during the differentiation step
Method: For immuno-fluorescence staining, cells were harvested, washed in PBS and incubated for 20 min at 4° C. with the following mAbs: FITC anti-CD14, FITC anti-CD80, PE anti-CD86, PC5 anti-CD83 (Beckman coulter), FITC anti-ILT2, PE anti-ILT4, PC5 anti-ILT3 (R&D systems) or PE-CD11c (Miltenyi Biotec, Paris, France). Cells were stained with corresponding isotype-matched control mAbs and analyzed by flow cytometry.

monocyte-derived DCs [5] = assay: Anti-inflammatory effect: treated DCs stimulated with LPS 24 h (costimulatory molecules, cytokine secretion); format: cell-based, human
[6] = moDCs treated 24 h, one value per peptide
[7] = tolerogenic DC models (model B)

C[C@@H]1C[C@H]2[C@@H]3CCC4=CC(=O)C=C[C@]4(C)[C@@]3(F)[C@@H](O)C[C@]2(C)[C@@]1(O)C(=O)CO [DEX, dexamethasone]
C1QA, C1QB and STAB1 gene expression increase (monocyte-derived DCs [1]; DEX-DCs compared with Ctrl-DCs): ≤ 12 fold
FKBP5 and F13A gene expression increase (monocyte-derived DCs [1]; DEX-DCs relative to Ctrl-DCs): ≤ 15 fold
ANXA1 protein level (monocyte-derived DCs [2]; DEX-DCs compared with Ctrl-DCs): 1.4 fold
FKBP5 protein induction (monocyte-derived DCs [2]; DEX-DCs compared with Ctrl-DCs): 2.6 fold
C1Q protein level (monocyte-derived DCs [2]; regulatory DEX-DCs): 12 fold
CATC protein level (monocyte-derived DCs [2]; regulatory DEX-DCs): 1.5 fold
MRC1 protein level (monocyte-derived DCs [2]; regulatory DEX-DCs): 1.4 fold
STAB1 protein level (monocyte-derived DCs [2]; regulatory DEX-DCs): 2.2 fold
abundance of the m/z 865.70 molecular ion (monocyte-derived DCs [3]; moDCs treated 24 h): 16300
Annexin A5 (ANXA5) average normalized abundance (monocyte-derived DCs [3]; [6]): 16940 and 11135
Annexin A6 (ANXA6) average normalized abundance (monocyte-derived DCs [3]; [6]): 3594 and 2084
Chloride intracellular channel protein 2 (CLIC2) average normalized abundance (monocyte-derived DCs [3]; [6]): 3857 and 4306
Complement C1q subcomponent subunit C (C1QC) average normalized abundance (monocyte-derived DCs [3]; [6]): 4308 and 4812 and 2406 and 2725
Cystatin-C (CYTC) average normalized abundance (monocyte-derived DCs [3]; [6]): 7747 and 6610 and 5925
Dipeptidyl peptidase 1 (CATC) average normalized abundance (monocyte-derived DCs [3]; [6]): 9396 and 14732 and 15459
Gelsolin precursor (GELS) average normalized abundance (monocyte-derived DCs [3]; [6]): 5372 and 6735
Integrin alpha-M (ITAM) average normalized abundance (monocyte-derived DCs [3]; [6]): 3832
Interferon-induced GTP-binding protein Mx1 (MX1) average normalized abundance (monocyte-derived DCs [3]; [6]): 1192
Neuroblast differentiation-associated protein AHNAK (AHNK) average normalized abundance (monocyte-derived DCs [3]; [6]): 2629 and 3047
Normal mucosa of esophagus-specific gene 1 protein (NMES1) average normalized abundance (monocyte-derived DCs [3]; [6]): 2947 and 2380
Peptidyl-prolyl cis-trans isomerase A (PPIA) average normalized abundance (monocyte-derived DCs [3]; [6]): 18929 and 14751
Peptidyl-prolyl cis-trans isomerase FKBP5 average normalized abundance (monocyte-derived DCs [3]; [6]): 3640 and 5224 and 4046
Pleckstrin (PLEK) average normalized abundance (monocyte-derived DCs [3]; [6]): 5583 and 4404
Proteasome subunit alpha type-7 (PSA7) average normalized abundance (monocyte-derived DCs [3]; [6]): 3617 and 2212
Sequestosome-1 (SQSTM) average normalized abundance (monocyte-derived DCs [3]; [6]): 1340 and 2411
TNF receptor-associated factor 1 (TRAF1) average normalized abundance (monocyte-derived DCs [3]; [6]): 1732 and 2223
Transferrin receptor protein 1 (TFR1) average normalized abundance (monocyte-derived DCs [3]; [6]): 706 and 1195
WD repeat-containing protein 1 (WDR1) average normalized abundance (monocyte-derived DCs [3]; [6]): 2581 and 2605
C1QC specific peptides increase (monocyte-derived DCs [3]; tolerogenic DEX-DCs): ≤ 5 fold

TGFb: cytokine TGFb added during the DC differentiation step (20 ng/ml)
ANXA1, CATC and GILZ proteins (monocyte-derived DCs [2]; [7]): upregulated
CD14 expression (monocyte-derived DCs [4]): CD14^neg
ILT2 expression (monocyte-derived DCs [4]): ILT2^med

C=C1/C(=C\C=C2/CCC[C@]3(C)[C@@H]([C@H](C)CCCC(C)(C)O)CC[C@@H]23)C[C@@H](O)C[C@@H]1O [VitD3, 1,25 dihydroxy-vitamin D3]
CD14 expression (monocyte-derived DCs [4]): CD14^med
ILT3 expression (monocyte-derived DCs [4]): ILT3^high
IL-6, IL-8 and TNF-α secretion after LPS stimulation (monocyte-derived DCs [5]): left uninhibited

B1: IL-10: cytokine IL-10 added during the DC differentiation step (10 ng/ml) (protein, UniProt P22301 19-178, looked up)
Interleukin-10: SPGQGTQSENSCTHFPGNLPNMLRDLRDAFSRVKTFFQMKDQLDNLLLKESLLEDFKGYLGCQALSEMIQFYLEEVMPQAENQDPDIKAHVNSLGENLKTLRLRLRRCHRFLPCENKSKAVEQVKNAFNKLQEKGIYKAMSEFDIFINYIEAYMTMKIRN
CATC gene induction (monocyte-derived DCs [1]; [7]): detected
F13A, MRC1 and STAB1 proteins (monocyte-derived DCs [2]; tolerogenic DC models (model B), DEX 24 h or differentiation): upregulated
CD14 expression (monocyte-derived DCs [4]): CD14^high
ILT4 expression (monocyte-derived DCs [4]): ILT4high

From patent US10190166B2, “Methods for identifying dendritic cell subsets, for determining if a patient is developing a regulatory or an effector immune response, and for determining response to immunotherapy” (STALLERGENES, priority 2011, dated 2019)
